Assay results: patent publication US20210087533A1, “CANINE EPITHELIAL ORGANOIDS AND METHODS OF MAKING, RECOVERING, AND USE” (Iowa State University Research Foundation, Inc., priority 2019, published 2021)

Legend:
[1] = tested on: TCC organoids; test: MTT cell viability (cytotoxicity) assay, TCC organoids; format: cell-based, canine; settings: for effect on TCC cell viability (MTT assay): old, much passaged TCC organoids
Method: Transitional Cell Carcinoma (TCC) Organoid Isolation and Culture. Canine bladder cancer cells for TCC organoids were isolated from urine (TCC #1) or biopsies (TCC #2) of dogs with transitional cell carcinoma. Briefly, urine was centrifuged and washed or small biopsies were washed with 1×Complete Chelation Solution (CCS) and vortexing up to 6 times, then incubated in 20-30 mM EDTA for 1 hour at 4° C. on a rocker. FBS and CCS was added to stop EDTA chelation, mixed, and the supernatant containing cancer cells was put in a new tube. Samples were centrifuged at 150 g for 5 minutes at 4° C., resuspended in DMEM/F12, centrifuged again, and the pellet was resuspended in 120 ul […]®. […]® droplets were then plated at 30 ul/well […]®/cells on 24-well plates. Complete Media with Growth Factors (CMGF+) containing Rock inhibitor and GSK inhibitor was added for 2-3 days at 37 C, and after 2-3 days, TCC organoids were cultured in CMGF+ media without inhibitors. TCC organoids were passaged every 4-7 days with TrypLE Express to dissociate organoids to single cells.
MTT Cell Viability Assay (Cytotoxicity Assay). Organoids from healthy intestine or transitional cell carcinoma (TCC) were dissociated and plated at equal density in 30 ul/well […]® in 24-well plates in 500 ul/well CMGF+ growth medium. On Day 1-4 after passage, organoids were incubated with the indicated drug for 48 or 96 hours. Cytotoxicity was determined using 3-(4,5-dimethylthiazol-2-yl) 2,5-diphenyl tetrazolium bromide (MTT) at a final concentration of 0.5 mg/mL for 1.5 hr. After medium removal, 200 ul/well cold DMSO was used to dissolve the formazan dye crystals and absorbance was read at 570 nm using a plate reader (SpectraMax 190, Molecular Devices).
As DMSO freezes […] but it is preferable to use cold media (4° C.) to dissolve the […]®. Thus, put DMSO briefly in 4° C. fridge or −20° C. freezer and remove before it all freezes, then use cold DMSO, pipette up and down vigorously, shake the plate, put plate in freezer briefly, etc. to try to get the […]® and formazan dye crystals to dissolve.

[2] = tested on: TCC organoids; test: Ki-67 IHC staining (proliferation) of TCC organoids; format: cell-based, canine
[3] = target: T1, P-gp (Canis lupus familiaris, UniProt C0KKU9); test: Rhodamine 123 (Rh123) transport in canine ileal enteroids; format: cell-based; settings: Rh123 1-50 μM, 30 min incubation, without verapamil
T1 construct: Therefore, P-gp of the enteroids have maintained their transportation ability; endogenous in cells; host or cells: canine ileal enteroids (3D organoids from adult intestinal stem cells of dogs)
T1 sequence (C0KKU9 1-1281): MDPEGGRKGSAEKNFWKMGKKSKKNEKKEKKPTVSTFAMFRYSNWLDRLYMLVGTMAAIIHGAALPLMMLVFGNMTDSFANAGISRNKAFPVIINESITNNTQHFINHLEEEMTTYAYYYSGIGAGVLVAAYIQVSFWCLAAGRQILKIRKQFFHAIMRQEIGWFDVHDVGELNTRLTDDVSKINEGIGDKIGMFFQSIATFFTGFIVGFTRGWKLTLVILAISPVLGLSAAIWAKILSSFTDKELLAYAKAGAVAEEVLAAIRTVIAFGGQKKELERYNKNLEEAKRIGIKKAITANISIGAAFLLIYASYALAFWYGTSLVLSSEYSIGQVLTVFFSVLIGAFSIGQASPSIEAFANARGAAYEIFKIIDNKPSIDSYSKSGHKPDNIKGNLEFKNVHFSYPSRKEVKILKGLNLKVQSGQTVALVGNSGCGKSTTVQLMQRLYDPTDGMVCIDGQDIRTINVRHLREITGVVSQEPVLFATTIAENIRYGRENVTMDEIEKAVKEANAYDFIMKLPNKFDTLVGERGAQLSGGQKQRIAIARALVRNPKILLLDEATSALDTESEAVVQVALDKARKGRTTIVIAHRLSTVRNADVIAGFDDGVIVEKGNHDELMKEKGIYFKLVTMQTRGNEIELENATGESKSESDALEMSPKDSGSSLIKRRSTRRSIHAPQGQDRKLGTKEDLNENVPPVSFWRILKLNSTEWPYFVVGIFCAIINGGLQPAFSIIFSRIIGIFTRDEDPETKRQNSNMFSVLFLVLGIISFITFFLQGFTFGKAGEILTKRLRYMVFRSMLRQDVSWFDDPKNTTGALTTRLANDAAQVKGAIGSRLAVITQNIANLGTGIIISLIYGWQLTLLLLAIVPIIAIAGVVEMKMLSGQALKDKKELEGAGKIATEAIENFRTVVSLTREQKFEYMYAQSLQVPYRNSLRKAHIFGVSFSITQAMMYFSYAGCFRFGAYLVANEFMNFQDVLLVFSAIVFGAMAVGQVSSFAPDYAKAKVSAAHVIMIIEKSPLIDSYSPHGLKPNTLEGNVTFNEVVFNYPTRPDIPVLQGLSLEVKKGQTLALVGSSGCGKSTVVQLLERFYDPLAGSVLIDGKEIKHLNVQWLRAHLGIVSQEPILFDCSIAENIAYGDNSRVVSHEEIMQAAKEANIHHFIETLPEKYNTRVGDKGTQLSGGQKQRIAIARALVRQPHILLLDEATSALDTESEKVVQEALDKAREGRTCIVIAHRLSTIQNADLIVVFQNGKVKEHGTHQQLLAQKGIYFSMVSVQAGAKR
Method: Canine ileal enteroids were passaged into 15 μL per well of […] ® in chambered cover glass system (Lab-Tek, Chambered Coverglass 8 well) and cultured with 300 μL per well of CMGF+ media for 2 days. […] Rh123 transport experiments were divided into: (1) Control [CTR] […] Enteroids were treated for 30 min and then washed with room-temperature PBS.
Confocal microscopy (SP5 X MP LAS X; Leica) at the Iowa State University Roy J. Carver High Resolution Microscopy Facility was used to acquire images to detect green fluorescence within the luminal aspect of the enteroids. Fluorescence intensity was controlled by the luminal area to control for the size variation of the enteroids and quantified using the ImageJ software.
Student's t-tests were used to compare study groups (CTR vs. TRT) for the various doses of Rh123. The Benjamini-Hochberg Procedure was performed to control the risk of false positive for multiple comparisons. All statistical analyses were perform using GraphPad Prism 8.2.1 (San Diego, Calif.) and R 3.5.1. P<0.05 were considered as statistically significant.

[4] = tested on: TCC organoids; test: Morphology of treated TCC organoids; format: cell-based, canine; settings: fenoldopam-treated TCC organoids
[5] = tested on: canine UC organoids; test: MTT assay for metabolic activity of urine-derived UC organoids; format: cell-based; settings: incubation for 24-48 hours
Method: Free-catch urine was collected from one dog at time of UC diagnosis. Samples were centrifuged and supernatant was removed. The resulting pellet was washed with phosphate-buffered saline (PBS), then incubated in complete chelating solution (CCS) with EDTA and plated in […]® for establishment of organoid culture within one week. Sub-samples of differentiated UC organoids were taken for 3-(4,5-dimethylthiazol-2-yl)-2,5-diphenyltetrazolium bromide (MTT) assay for metabolic activity assessment after incubation with chemotherapeutic agents. Remaining UC organoids were characterized with H&E, RNA in-situ hybridization (RNA-ISH), and immunohistochemistry (IHC) staining techniques.

COc1cc(OC)cc(N(CCNC(C)C)c2ccc3ncc(-c4cnn(C)c4)nc3c2)c1 [Erdafitinib]
effect on TCC cell viability (MTT assay) ([1]; 1-10 μM): no effect

NCCc1ccc(O)c(O)c1 [Dopamine]
increase of Ki-67 IHC staining ([2]; 0.1, 1, 10 μM): about 2 fold

CC[C@]1(O)C[C@@H]2CN(CCc3c([nH]c4ccccc34)[C@@](C(=O)OC)(c3cc4c(cc3OC)N(C)[C@H]3[C@@](O)(C(=O)OC)[C@H](OC(C)=O)[C@]5(CC)C=CCN6CC[C@]43[C@@H]65)C2)C1 [Vinblastine]
effect on TCC cell viability (MTT assay) ([1]; other plate, dose not given): slight stimulatory effect

Rhodamine 123 [Rh123]
Rh123 luminal transportation [3]: significant dose response

CN1C(C(=O)Nc2ccccn2)=C(O)c2ccccc2S1(=O)=O [Piroxicam]
cell viability (MTT) ([1]; 1-10 μM, 48 hours or 4 days, organoid type not restated): ≥ 80 % of control | decrease of Ki-67 staining ([2]; 0.1 μM Piroxicam): 50% | increase of Ki-67 IHC staining ([2]; 1-10 μM Piroxicam): 2-3 fold

Oc1ccc(C2CNCCc3c2cc(O)c(O)c3Cl)cc1 (centres unmarked) [Fenoldopam]
decrease of TCC organoid Ki-67 (proliferation) ([2]; 1 nM Fenoldopam): about 50% | effect on TCC organoid Ki-67 (proliferation) ([2]; 10 μM Fenoldopam): did not have much effect | lumens/holes in the TCC organoids [4]: getting bigger

N.N.[Cl][Pt][Cl] [cisplatin]
metabolic activity of UC organoids (MTT) [5]: reduced metabolic activity

NS(=O)(=O)NCCNc1nonc1C(=NO)Nc1ccc(F)c(Br)c1 [Epacadostat]
TCC cell viability (MTT assay) ([1]; 1 μM Epacadostat, 48 hours): about 80 % of control | decrease of TCC cell viability (MTT assay) ([1]; other doses of Epacadostat, 48 hours): not at the other doses

C[C@H](NC(=O)c1c(C(F)F)nn(C)c1Oc1cccc(C(F)(F)F)c1)c1ccc(C(=O)O)cc1 [E-7046]
effect on TCC cell viability (MTT assay) ([1]; other plate, dose not given): slight stimulatory effect

COc1cccc2c1C(=O)c1c(O)c3c(c(O)c1C2=O)C[C@@](O)(C(=O)CO)C[C@@H]3O[C@H]1C[C@H](N)[C@H](O)[C@H](C)O1 [Doxorubicin]
TCC organoid cell viability (MTT) ([1]; 10 μM doxorubicin): 50 % of control | effect on TCC organoid cell viability (MTT), other runs ([1]; sometimes observed): small 20% effect or no effect | Ki-67 IHC (proliferation) ([2]; 0.1 μM Dox, once): 10-20 % of control
